The text below walks through data of US11572351B1, “Bis-Schiff base compositions and formulations” (Systima Technologies, Inc., priority 2016, dated 2023).

Series [1] is described as follows: Viscosity stability during 4 hour isothermal dwell at 120° C., parallel plate rheometer. Format: physicochemical. The settings on record: isothermal 120° C., viscosity stayed 150 to 200 cP. The method, then: (§1) In some embodiments, the chemical composition may have a low viscosity, such as below about 100,000 cP at temperatures below 170° C. The viscosity may be measured by rotational rheometry by acquiring viscosity versus temperature curves on a parallel plate rheometer, commercially available from TA Instruments (New Castle, Del.) at a controlled strain of 0.01% and an angular frequency of 10.00 radians per second (rad/s) by heating samples at a rate of 2° C. per minute to the isothermal temperature specified. In one or more embodiments, the chemical composition may have a melt viscosity of less than or equal to 500 cP at 125° C. as measured by rotation rheometry. In one or more embodiments, the chemical composition may have a melt viscosity of less than or equal to 100,000 cP at 125° C. as measured by rotation rheometry. For instance, the chemical composition may have a melt viscosity of from 10,000 to 100,000 cP, from 40,000 to 80,000 cP, or from 20,000 to 50,000 cP at 125° C. In some particular embodiments, the chemical composition may have an extremely low viscosity at less than 200° C., such as less than 500 cP. In some particular embodiments, the chemical composition may have a melt viscosity of from 100 to 500 cP, from 200 to 400 cP, or from 300 to 500 cP at 125° C. […]

Series [2] is described as follows: Melt viscosity versus temperature, parallel plate rheometer, temperature ramp. The series is classed as physicochemical. The settings on record: ramp 2° C. per minute, strain 0.01%, 10.00 rad/s; processing window about 100° C. up to at least 200° C. The method, then:
as §1

Turning to `C(=N\c1ccc(Oc2cccc(Oc3ccc(/N=C/c4ccco4)cc3)c2)cc1)/c1ccco1` [Example 1], in series [1], the “period of time of stable low melt viscosity” value is reported as “at least 4 hours”. Also, in series [2], the “viscosity (melt flow viscosity)” value is “less than 1000 cP”.

On to `C(=N\c1cccc(Oc2cccc(Oc3cccc(/N=C/c4ccco4)c3)c2)c1)/c1ccco1` [Example 2], for which, in series [1], the “period of time of stable low melt viscosity” value was “at least 4 hours”. For the same compound, in series [2], the “viscosity (melt flow viscosity)” value is “less than 1000 cP”.
